From patent US20060293223A1 (Eli Lilly and Company Patent Division, priority 2003, published 2006)
Positions of bridges follow the written chain, without caps; N, C: chain ends. Non-standard residues stand in square brackets, D forms with d. No end group written: not given here. hCys = N[C@@H](CCS)C(=O)O

test system: MC1/MC4; details: ratio MC1/MC4
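Note: ratio of EC50 values obtained at MC1 versus MC4 receptors, with MC1 potency measured by luciferase reporter activity in stably transfected cells expressing human MC1.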

Substance | MC1/MC4 selectivity
Ac-Tyr-Arg-cyclo[Cys-Glu-(1-Bom-His)-D-Phe-Arg-Trp-Cys]-NH2 [Compound 101] | 0.97
Ac-cyclo(S—CH2—S)[Cys-His-D-Phe-Arg-Trp-Cys]-NH2 [Compound 198] | 13.07
N-cyclohexanecarbonyl-cyclo[hCys-His-D-Phe-Arg-Trp-Cys]-NH2 [Compound 144] | 14.85
Ac-CH[dF]RWC-NH2 (disulfide 1-6) [Compound 1] | 3.91
Ac-Tyr-Arg-cyclo[Cys-Glu-His-(4-F-D-Phe)-Arg-Trp-Cys]-NH2 [Compound 83] | 45.95
Ac-CDH[dF]RWC-NH2 (disulfide 1-7) [Compound 6] | 35.74
phenylsulfonyl-Gly-cyclo[hCys-His-D-Phe-Arg-Trp-Cys]-NH2 [Compound 161] | 2.18
N-(2-naphthalenesulfonyl)-cyclo[hCys-His-D-Phe-Arg-Trp-Cys]-NH2 [Compound 151] | 14.00
Arg-cyclo[Cys-Glu-His-D-Phe-Arg-Trp-Cys]-OH [Compound 45] | 30.47
N-valeryl-cyclo[Cys-Glu-His-D-Phe-Arg-Trp-Cys]-NH2 [Compound 39] | 19.67
Ac-Tyr-Arg-cyclo[Cys-Glu-(4-phenyl-1H-imidazol-2-yl-D-Ala)-D-Phe-Arg-Trp-Cys]-NH2 [Compound 104] | 3.68
Ac-[hCys]H[dF]RW[hCys]-NH2 (disulfide 1-6) [Compound 193] | 26.59
Arg-cyclo[Cys-His-(4-F-D-Phe)-Arg-Trp-hCys]-NH2 [Compound 187] | 20.76
cyclo[hCys-His-(4-F-D-Phe)-Arg-Trp-Cys]-NH2 [Compound 134] | 68.42
Ac-Tyr-Arg-cyclo[Cys-Cya-His-D-Phe-Arg-Trp-Cys]-NH2 [Compound 28] | 26.35
Ac-cyclo[Cys-Glu-His-(4-Cl-D-Phe)-Arg-Trp-Cys]-NH2 [Compound 32] | 66.88
Ac-YR[hCys]H[dF]RWC-NH2 (disulfide 3-8) [Compound 164] | 7.79
Ac-R[hCys]H[dF]RWC-OH (disulfide 2-7) [Compound 159] | 49.41
YRCEH[dF]RWCE-NH2 (disulfide 3-9) [Compound 71] | 5.13
Ac-Tyr-Arg-cyclo[Cys-Glu-His-D-Phe-Arg-Trp-hCys]-NH2 [Compound 192] | 1.00
R[hCys]H[dF]RWC-NH2 (disulfide 2-7) [Compound 153] | 41.81

Substance | MC1/MC4 selectivity
Ac-YKCEH[dF]RWC-NH2 (disulfide 3-9) [Compound 128] | 22.46
Ac-YRCVH[dF]RWC-NH2 (disulfide 3-9) [Compound 25] | 11.00
Ac-Arg-cyclo[Cys-Glu-His-D-Phe-Arg-Trp-Cys]-NH2 [Compound 48] | 26.80
Ac-nLeu-cyclo[Cys-Glu-His-D-Phe-Arg-Trp-Cys]-Ser-Pro-NH2 [Compound 61] | 1.70
Ac-Tyr-Arg-cyclo[Cys-Glu-(1-Me-D-His)-(4-F-D-Phe)-Arg-Trp-Cys]-NH2 [Compound 85] | 2.66
Ac-cyclo[Cys-Glu-(1-Me-His)-D-Phe-Arg-Trp-Cys]-NH2 [Compound 34] | 11.52
Ac-YR[hCys]H[dF]RW[hCys]-NH2 (disulfide 3-8) [Compound 196] | 4.98
Ac-YRCNH[dF]RWC-NH2 (disulfide 3-9) [Compound 5] | 5.00
Ac-YRCQH[dF]RWC-OH (disulfide 3-9) [Compound 9] | 10.00
Ac-Tyr-Arg-cyclo[Cys-Glu-(β-(thien-2-yl)-Ala)-D-Phe-Arg-Trp-Cys]-NH2 [Compound 111] | 7.67
N-butyryl-cyclo[Cys-Glu-His-D-Phe-Arg-Trp-Cys]-NH2 [Compound 38] | 28.16
Ac-cyclo[hCys-His-(4-Cl-D-Phe)-Arg-Trp-Cys]-NH2 [Compound 140] | 128.15
Ac-YRCEH[dF]RWCKP-NH2 (disulfide 3-9) [Compound 121] | 0.74
Ac-D-Arg-cyclo[Cys-Cya-His-D-Phe-Arg-Trp-Cys]-NH2 [Compound 27] | 30.11
Ac-hArg-cyclo[Cys-Glu-His-D-Phe-Arg-Trp-Cys]-NH2 [Compound 54] | 20.85
Ac-cyclo[Cys-His-D-Phe-Arg-Trp-hCys]-NH2 [Compound 183] | 53.39
Ac-YRCFH[dF]RWC-NH2 (disulfide 3-9) [Compound 19] | 7.64
Ac-nLeu-cyclo[hCys-His-D-Phe-Arg-Trp-Cys]-NH2 [Compound 160] | 0.90
Ac-YRCYH[dF]RWC-NH2 (disulfide 3-9) [Compound 24] | 8.00
Ac-CLH[dF]RWC-NH2 (disulfide 1-7) [Compound 15] | 14.75
